Measurements published in patent publication US20120251525A1, “METHOD OF UTILIZING AZELAIC ACID ESTERS TO MODULATE COMM[…] BY […]” (priority 2009, published 2012).

Tests used:
[1] = test system: EpiDerm tissues; test: MatTek EpiDerm in vitro human skin model, croton oil irritant, multiplex immunoassay of markers; assay type: cell-based; settings: for tissue levels of IL-17 / tissue levels of MIP-1-alpha: relative to control (croton oil only)
[2] = test system: human squamous cell carcinoma; settings: Paetzold et al. 1989; cited from earlier work
[3] = test system: human choroidal melanoma; settings: Breathnach et al. 1989; cited from earlier work
[4] = clinical practice; cited from earlier work
[5] = test system: human cutaneous malignant melanoma; settings: Zaffaroni et al. 1990; cited from earlier work
[6] = test system: various fibroblastic lines; settings: Geier et al. 1986; cited from earlier work
[7] = growth medium, croton oil, 24 hours, relative to control
[8] = tissue, croton oil, 24 hours, relative to control

SMILES: CCOC(=O)CCCCCCCC(=O)OCC [DEA, diethyl azelate]
- IL-8 modulation ([1]; matrix not stated): suppressing
- IL-17 modulation ([1]; matrix not stated): suppressing
- IL-23 modulation ([1]; matrix not stated): suppressing
- tissue levels of IL-17 ([1]; tissue): exceedingly high relative to control
- tissue levels of MIP-1-alpha ([1]; tissue): elevated relative to control

SMILES: COC(=O)CCCCCCCC(=O)OC [DMA, dimethylazelate]
- IL-1-beta medium marker level [1, 7]: increased
- IL-4 medium marker level [1, 7]: increases
- IL-10 medium marker level [1, 7]: increases
- TNF-alpha medium marker level [1, 7]: increased
- IL-1-beta tissue level [1, 8]: decreased relative to control
- IL-4 tissue level [1, 8]: decreased relative to control
- IL-10 tissue level [1, 8]: decreased relative to control
- TNF-alpha tissue level [1, 8]: decreased relative to control

SMILES: O=C(O)CCCCCCCC(=O)O [azelaic acid]
- antiproliferative and cytotoxic action [2]: antiproliferative and cytotoxic action
- tissue levels of IL-17 ([1]; tissue): significantly lower than control
- tissue levels of MIP-1-alpha ([1]; tissue): elevated relative to control
- antiproliferative and cytotoxic action [3]: antiproliferative and cytotoxic action
- major dose limiting toxicity [4]: skin irritation
- antiproliferative and cytotoxic action [5]: antiproliferative and cytotoxic action
- antiproliferative and cytotoxic action [6]: antiproliferative and cytotoxic action
